From patent US20040191115A1 (priority 2003, published 2004)
Where “and” joins values, the source holds several entries; their conditions need not be identical. Equal entries are not always repeated. Where two headings read alike, the source gives them in different places.

How the values were obtained:
[1] = test system: bacillus atrophaeus spores; settings: 3.12 percent H2O2, no machine operation, without cartons; for average count of colony forming units for the time period / log of average count for the time period: mean of samples
Procedure: (§1) Studies were conducted to determine the microbial eradication on mandrels 34 that were subjected to vaporized sterilant introduced at the heaters 40. […] The efficacy of the mandrel sterilization was studied for both the mandrel caps 35 and the mandrel side tubes 37 (see FIG. 3).
(§2) Each of the studies was further carried out using a testing media of bacillus atrophaeus spores for inoculating the mandrels. The mandrels were inoculated by spraying, using an aerating spray bottle having a solution with a concentration of about 7 log bacillus spores. The mandrels were then allowed to air dry. Controls were swabbed using cotton swabs to assure that the mandrels were properly inoculated. Following the machine operating period of the test, the mandrels were swabbed and the bacillus spores transferred to an agar media for incubation of the spores (at 32° C. for 48 hours) and subsequent recovery.
In this part of the analysis, the form, fill and seal machine was operated without cartons and without indexing (rotation) of the mandrels.

[2] = test system: bacillus atrophaeus spores; settings: normal machine operation, cartons running
Procedure: as §1, §2

[3] = 16.76 percent H2O2, time 10 min
[4] = 16.76 percent H2O2, time 15 min
[5] = 16.76 percent H2O2, time 20 min
[6] = 16.76 percent H2O2, time 30 min

## OO [hydrogen peroxide]
[1]; time 0 min
  average count of colony forming units for the time period: 3.51E+05 CFU/mandrel
  log of average count for the time period: 5.55 log
[1]; time 15 min
  average count of colony forming units for the time period: 2.90E+05 CFU/mandrel
  log of average count for the time period: 5.46 log
  Average CFU/mL: 7.85E+04 CFU/mL and 6.65E+04 CFU/mL
  Average CFU/mandrel: 3.14E+05 CFU/mandrel and 2.66E+05 CFU/mandrel
  Log (of Average CFU/mandrel): 5.50 Log and 5.42 Log
  Result #1 CFU/mL: 7.80E+04 CFU/mL and 4.70E+04 CFU/mL
  Result #2 CFU/mL: 7.90E+04 CFU/mL and 8.60E+04 CFU/mL
[1]; time 15 min relative to time zero
  Log Red. (Avg.): 0.08 Log
[1]; time 30 min
  average count of colony forming units for the time period: 2.72E+05 CFU/mandrel
  log of average count for the time period: 5.43 log
  Log (of Average CFU/mandrel): 5.47 Log and 5.28 Log and 5.49 Log
  Result #1 CFU/mL: 7.40E+04 CFU/mL and 4.30E+04 CFU/mL and 7.80E+04 CFU/mL
[1]; time 30 min relative to time zero
  Log Red. (Avg.): 0.11 Log
[2]; 3.12 percent H2O2, time 0 min
  Microbial Load (CFU/mandrel): 848000 CFU/mandrel
  Microbial Reduction (Log/mandrel): 0.00 Log/mandrel
[2]; 3.12 percent H2O2, time 10 min
  Microbial Load (CFU/mandrel): 187000 CFU/mandrel
  Microbial Reduction (Log/mandrel): 0.66 Log/mandrel
[2]; 3.12 percent H2O2, time 20 min
  Microbial Load (CFU/mandrel): 33400 CFU/mandrel
  Microbial Reduction (Log/mandrel): 1.40 Log/mandrel
[2]; 3.12 percent H2O2, time 30 min
  Microbial Load (CFU/mandrel): 14100 CFU/mandrel
  Microbial Reduction (Log/mandrel): 1.78 Log/mandrel
[2]; 3.12 percent H2O2, time 40 min
  Microbial Load (CFU/mandrel): 2180 CFU/mandrel
  Microbial Reduction (Log/mandrel): 2.59 Log/mandrel
[2]; 5.77 percent H2O2, time 0 min
  Microbial Load (CFU/mandrel): 566000 CFU/mandrel
  Microbial Reduction (Log/mandrel): 0.00 Log/mandrel
[2]; 5.77 percent H2O2, time 10 min
  Microbial Load (CFU/mandrel): 107000 CFU/mandrel
  Microbial Reduction (Log/mandrel): 0.72 Log/mandrel
[2]; 5.77 percent H2O2, time 20 min
  Microbial Load (CFU/mandrel): 7300 CFU/mandrel
  Microbial Reduction (Log/mandrel): 1.89 Log/mandrel
[2]; 5.77 percent H2O2, time 30 min
  Microbial Load (CFU/mandrel): 42 CFU/mandrel
  Microbial Reduction (Log/mandrel): 4.13 Log/mandrel
[2]; 5.77 percent H2O2, time 40 min
  Microbial Load (CFU/mandrel): 4 CFU/mandrel
  Microbial Reduction (Log/mandrel): 5.15 Log/mandrel
[2]; 9.55 percent H2O2, time 0 min
  Microbial Load (CFU/mandrel): 483000 CFU/mandrel
  Microbial Reduction (Log/mandrel): 0.00 Log/mandrel
[2]; 9.55 percent H2O2, time 5 min
  Microbial Load (CFU/mandrel): 71000 CFU/mandrel
  Microbial Reduction (Log/mandrel): 0.83 Log/mandrel
[2]; 9.55 percent H2O2, time 10 min
  Microbial Load (CFU/mandrel): 5750 CFU/mandrel
  Microbial Reduction (Log/mandrel): 1.92 Log/mandrel
[2]; 9.55 percent H2O2, time 20 min
  Microbial Load (CFU/mandrel): 106 CFU/mandrel
  Microbial Reduction (Log/mandrel): 3.66 Log/mandrel
[2]; 9.55 percent H2O2, time 30 min
  Microbial Load (CFU/mandrel): 8 CFU/mandrel
  Microbial Reduction (Log/mandrel): 4.78 Log/mandrel
[2]; 16.76 percent H2O2, time 0 min
  Microbial Load (CFU/mandrel): 1020667 CFU/mandrel
  Microbial Reduction (Log/mandrel): 0.00 Log/mandrel
[2]; 16.76 percent H2O2, time 5 min
  Microbial Load (CFU/mandrel): 52967 CFU/mandrel
  Microbial Reduction (Log/mandrel): 1.22 Log/mandrel
[2]; [3]
  Microbial Load (CFU/mandrel): 1273 CFU/mandrel
  Microbial Reduction (Log/mandrel): 2.81 Log/mandrel
[2]; [4]
  Microbial Load (CFU/mandrel): 30 CFU/mandrel
  Microbial Reduction (Log/mandrel): 4.53 Log/mandrel
[2]; [5]
  Microbial Load (CFU/mandrel): 8 CFU/mandrel
  Microbial Reduction (Log/mandrel): 5.20 Log/mandrel
[2]; [6]
  Microbial Load (CFU/mandrel): 4 CFU/mandrel
  Microbial Reduction (Log/mandrel): 5.21 Log/mandrel
[2]; 35 percent H2O2, time 0 min
  Microbial Load (CFU/mandrel): 799000 CFU/mandrel
  Microbial Reduction (Log/mandrel): 0.00 Log/mandrel
[2]; 35 percent H2O2, time 5 min
  Microbial Load (CFU/mandrel): 959 CFU/mandrel
  Microbial Reduction (Log/mandrel): 2.92 Log/mandrel
[2]; 35 percent H2O2, time 10 min
  Microbial Load (CFU/mandrel): 1 CFU/mandrel
[2]; 35 percent H2O2, time 15 min
  Microbial Load (CFU/mandrel): 1 CFU/mandrel
  Microbial Reduction (Log/mandrel): 5.90 Log/mandrel
[2]; 35 percent H2O2, time 20 min
  Microbial Load (CFU/mandrel): 1 CFU/mandrel
  Microbial Reduction (Log/mandrel): 5.90 Log/mandrel
